Results as given in the NIST ThermoML archive (doi:10.1016/j.fluid.2014.11.024).
Numbers after ± are expanded uncertainties.

Details: 101.33 kPa, Liquid; for viscosity: Falling or rolling sphere viscometry; for speed of sound: Sing-around technique in a fixed-path interferometer; for mass density: Vibrating tube method

Row | SMILES | viscosity (293.15 K) [mPa·s] | speed of sound (293.15 K) [m/s] | mass density (293.15 K) [kg/m3] | viscosity (298.15 K) [mPa·s] | speed of sound (298.15 K) [m/s] | mass density (298.15 K) [kg/m3] | viscosity (303.15 K) [mPa·s] | speed of sound (303.15 K) [m/s] | mass density (303.15 K) [kg/m3] | viscosity (308.15 K) [mPa·s] | speed of sound (308.15 K) [m/s] | mass density (308.15 K) [kg/m3] | viscosity (313.15 K) [mPa·s] | speed of sound (313.15 K) [m/s] | mass density (313.15 K) [kg/m3] | viscosity (318.15 K) [mPa·s] | speed of sound (318.15 K) [m/s] | mass density (318.15 K) [kg/m3] | viscosity (323.15 K) [mPa·s] | speed of sound (323.15 K) [m/s] | further results
1 | C[NH+]1CCCC1=O.O=C[O-] [N-methyl-2-oxopyrrolidinium formate] | 2.451 ± 0.032 | 1496 ± 2.3 | 1076.38 ± 1 | 2.217 ± 0.029 | 1478.3 ± 2.3 | 1071.66 ± 0.99 | 2.02 ± 0.027 | 1460.4 ± 2.3 | 1066.93 ± 0.98 | 1.85 ± 0.025 | 1442.5 ± 2.3 | 1062.2 ± 0.97 | 1.705 ± 0.023 | 1424.8 ± 2.3 | 1057.45 ± 0.96 | 1.58 ± 0.022 | 1407.2 ± 2.3 | 1052.71 ± 0.95 | 1.472 ± 0.021 | 1389.7 ± 2.3 | mass density (323.15 K): 1047.96 ± 0.94 kg/m3; viscosity (328.15 K): 1.377 ± 0.02 mPa·s; speed of sound (328.15 K): 1372.2 ± 2.3 m/s; mass density (328.15 K): 1043.2 ± 0.93 kg/m3; viscosity (333.15 K): 1.295 ± 0.019 mPa·s; speed of sound (333.15 K): 1354.8 ± 2.3 m/s; mass density (333.15 K): 1038.43 ± 0.92 kg/m3; viscosity (338.15 K): 1.223 ± 0.018 mPa·s; speed of sound (338.15 K): 1337.6 ± 2.3 m/s; mass density (338.15 K): 1033.66 ± 0.91 kg/m3; viscosity (343.15 K): 1.159 ± 0.017 mPa·s; speed of sound (343.15 K): 1320.5 ± 2.3 m/s; mass density (343.15 K): 1028.88 ± 0.9 kg/m3
2 | CCC(=O)[O-].C[NH+]1CCCC1=O [N-methyl-2-oxopyrrolidinium propionate] | 3.136 ± 0.04 | 1460.3 ± 2.3 | 1032.46 ± 0.9 | 2.801 ± 0.036 | 1442.6 ± 2.3 | 1027.86 ± 0.89 | 2.518 ± 0.032 | 1424.5 ± 2.3 | 1023.32 ± 0.89 | 2.28 ± 0.03 | 1406.4 ± 2.3 | 1018.74 ± 0.88 | 2.075 ± 0.027 | 1388.4 ± 2.3 | 1014.16 ± 0.87 | 1.9 ± 0.025 | 1370.6 ± 2.3 | 1009.56 ± 0.86 | 1.75 ± 0.024 | 1352.8 ± 2.3 | mass density (323.15 K): 1004.97 ± 0.85 kg/m3; viscosity (328.15 K): 1.619 ± 0.022 mPa·s; speed of sound (328.15 K): 1335.1 ± 2.3 m/s; mass density (328.15 K): 1000.36 ± 0.84 kg/m3; viscosity (333.15 K): 1.506 ± 0.021 mPa·s; speed of sound (333.15 K): 1317.5 ± 2.3 m/s; mass density (333.15 K): 995.75 ± 0.83 kg/m3; viscosity (338.15 K): 1.407 ± 0.02 mPa·s; speed of sound (338.15 K): 1300 ± 2.3 m/s; mass density (338.15 K): 991.12 ± 0.83 kg/m3; viscosity (343.15 K): 1.32 ± 0.019 mPa·s; speed of sound (343.15 K): 1282.6 ± 2.3 m/s; mass density (343.15 K): 986.49 ± 0.82 kg/m3
3 | CCCC(=O)[O-].C[NH+]1CCCC1=O [N-methyl-2-oxopyrrolidinium butanoate] | 3.996 ± 0.051 | 1435.6 ± 2.3 | 1010.56 ± 0.86 | 3.526 ± 0.045 | 1418 ± 2.3 | 1006.11 ± 0.85 | 3.136 ± 0.04 | 1400.1 ± 2.3 | 1001.65 ± 0.84 | 2.809 ± 0.036 | 1382.2 ± 2.3 | 997.18 ± 0.83 | 2.531 ± 0.033 | 1364.4 ± 2.3 | 992.71 ± 0.83 | 2.295 ± 0.03 | 1346.7 ± 2.3 | 988.24 ± 0.82 | 2.093 ± 0.028 | 1328.5 ± 2.3 | mass density (323.15 K): 983.74 ± 0.82 kg/m3; viscosity (328.15 K): 1.918 ± 0.026 mPa·s; speed of sound (328.15 K): 1311 ± 2.3 m/s; mass density (328.15 K): 979.25 ± 0.81 kg/m3; viscosity (333.15 K): 1.771 ± 0.024 mPa·s; speed of sound (333.15 K): 1293.5 ± 2.3 m/s; mass density (333.15 K): 974.76 ± 0.81 kg/m3; viscosity (338.15 K): 1.639 ± 0.022 mPa·s; speed of sound (338.15 K): 1276.3 ± 2.3 m/s; mass density (338.15 K): 970.26 ± 0.8 kg/m3; viscosity (343.15 K): 1.527 ± 0.021 mPa·s; speed of sound (343.15 K): 1259.1 ± 2.3 m/s; mass density (343.15 K): 965.75 ± 0.8 kg/m3
4 | CC(=O)[O-].C[NH+]1CCCC1=O [N-methyl-2-oxopyrrolidinium acetate] | 2.933 ± 0.037 | 1491.5 ± 2.3 | 1050.71 ± 0.94 | 2.622 ± 0.034 | 1473.5 ± 2.3 | 1046.06 ± 0.93 | 2.364 ± 0.031 | 1455.1 ± 2.3 | 1041.42 ± 0.92 | 2.144 ± 0.028 | 1436.9 ± 2.3 | 1036.77 ± 0.91 | 1.959 ± 0.026 | 1418.7 ± 2.3 | 1032.12 ± 0.9 | 1.799 ± 0.024 | 1400.6 ± 2.3 | 1027.46 ± 0.89 | 1.66 ± 0.023 | 1382.6 ± 2.3 | mass density (323.15 K): 1022.79 ± 0.88 kg/m3; viscosity (328.15 K): 1.54 ± 0.021 mPa·s; speed of sound (328.15 K): 1364.7 ± 2.3 m/s; mass density (328.15 K): 1018.12 ± 0.87 kg/m3; viscosity (333.15 K): 1.435 ± 0.02 mPa·s; speed of sound (333.15 K): 1346.9 ± 2.3 m/s; mass density (333.15 K): 1013.44 ± 0.86 kg/m3; viscosity (338.15 K): 1.344 ± 0.019 mPa·s; speed of sound (338.15 K): 1329.2 ± 2.3 m/s; mass density (338.15 K): 1008.75 ± 0.86 kg/m3; viscosity (343.15 K): 1.264 ± 0.018 mPa·s; speed of sound (343.15 K): 1311.5 ± 2.3 m/s; mass density (343.15 K): 1004.05 ± 0.85 kg/m3
5 | CCCCCC(=O)[O-].C[NH+]1CCCC1=O [N-methyl-2-oxopyrrolidinium hexanoate] | 5.211 ± 0.066 | 1431.4 ± 2.3 | 983.01 ± 0.82 | 4.549 ± 0.058 | 1414.2 ± 2.3 | 978.81 ± 0.81 | 3.998 ± 0.051 | 1396.7 ± 2.3 | 974.6 ± 0.81 | 3.543 ± 0.045 | 1379.3 ± 2.3 | 970.39 ± 0.8 | 3.163 ± 0.04 | 1362 ± 2.3 | 966.18 ± 0.8 | 2.843 ± 0.036 | 1344.8 ± 2.3 | 961.96 ± 0.79 | 2.57 ± 0.033 | 1327.6 ± 2.3 | mass density (323.15 K): 957.74 ± 0.79 kg/m3; viscosity (328.15 K): 2.336 ± 0.03 mPa·s; speed of sound (328.15 K): 1310.6 ± 2.3 m/s; mass density (328.15 K): 953.51 ± 0.78 kg/m3; viscosity (333.15 K): 2.135 ± 0.028 mPa·s; speed of sound (333.15 K): 1293.7 ± 2.3 m/s; mass density (333.15 K): 949.28 ± 0.78 kg/m3; viscosity (338.15 K): 1.96 ± 0.026 mPa·s; speed of sound (338.15 K): 1276.8 ± 2.3 m/s; mass density (338.15 K): 945.04 ± 0.77 kg/m3; viscosity (343.15 K): 1.808 ± 0.024 mPa·s; speed of sound (343.15 K): 1260.2 ± 2.3 m/s; mass density (343.15 K): 940.79 ± 0.77 kg/m3
6 | CCCCC(=O)[O-].C[NH+]1CCCC1=O [N-methyl-2-oxopyrrolidinium pentanoate] | 4.448 ± 0.056 | 1427.7 ± 2.3 | 994.31 ± 0.83 | 3.91 ± 0.05 | 1410.5 ± 2.3 | 990.01 ± 0.83 | 3.465 ± 0.044 | 1393 ± 2.3 | 985.7 ± 0.82 | 3.093 ± 0.039 | 1375.4 ± 2.3 | 981.38 ± 0.82 | 2.779 ± 0.036 | 1358 ± 2.3 | 977.06 ± 0.81 | 2.513 ± 0.032 | 1340.7 ± 2.3 | 972.73 ± 0.81 | 2.284 ± 0.03 | 1323 ± 2.3 | mass density (323.15 K): 968.39 ± 0.8 kg/m3; viscosity (328.15 K): 2.087 ± 0.028 mPa·s; speed of sound (328.15 K): 1305.7 ± 2.3 m/s; mass density (328.15 K): 964.05 ± 0.8 kg/m3; viscosity (333.15 K): 1.917 ± 0.026 mPa·s; speed of sound (333.15 K): 1288.7 ± 2.3 m/s; mass density (333.15 K): 959.71 ± 0.79 kg/m3; viscosity (338.15 K): 1.769 ± 0.024 mPa·s; speed of sound (338.15 K): 1271.8 ± 2.3 m/s; mass density (338.15 K): 955.36 ± 0.79 kg/m3; viscosity (343.15 K): 1.64 ± 0.022 mPa·s; speed of sound (343.15 K): 1255 ± 2.3 m/s; mass density (343.15 K): 951.01 ± 0.78 kg/m3
